The text below walks through data of PubChem BioAssay (NCI).

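Briefly, cells in 96-well plates were exposed to five compound concentrations for 48 h, and endpoints were estimated by linear interpolation. The concentration for 50% growth inhibition is given as GI50. The concentration for full growth arrest is given as TGI.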 Bounds are passed on as bounds.

Common to all, as to experiment: NCI-60 cell line screen, 48 h
Test [1] concerns CAKI-1 renal.
The subject of test [2] is MALME-3M melanoma.
In test [3] the test system is MCF7 breast.
The test system of test [4] is MDA-MB-435.
Test [5] has as its system NCI-H460 lung.
For test [6], the system named is SNB-19 CNS.
The test system of test [7] is SR leukemia.
Test [8] concerns TK-10 renal.
Test [9] has as its system UO-31 renal.
Test [10] relates to OVCAR-8 ovarian.

Consider `CCOC(=O)CC[C@H](N)C(=O)N[C@H](Cc1ccc(N(CCCl)CCCl)cc1)C(=O)OCC`, for which the TGI in test [1] was 4.03 µM; in [2] it was 13.9 µM; in test [3] it was over 47.5 µM; in test [4], over 47.7 µM; in test [5], 16.2 µM; in test [6] it was 99 µM. The TGI in test [7] was over 33.6 µM; in [8], 8.51 µM; in test [9] it was 0.281 µM. In addition, the GI50 in test [9] was 0.135 µM.

Take `N=C(c1cccs1)C1(N2CCCCC2)CCCCC1`: the TGI in test [1] was 32.9 µM; in [2], 30.2 µM; in test [3], 30.5 µM; in test [4] it was 37.8 µM; in [5], 30 µM; in test [6] it was 34.8 µM. In addition, the TGI turned out to be 37.1 µM in test [7], 35.7 µM in test [8] and 30.5 µM in [9].

Take `CCOP(=O)(OCC)C(C)(C)OC(=O)NC#N`: the TGI in test [1], in test [2], in [3], in test [4], in [5] and in [10] was over 100 µM in each case. Further, the TGI in [6], in test [7], in test [8] and in [9] was over 100 µM in each case.

On to `O=P1(c2ccccc2)C2=CCC=CC2C(c2ccccc2)N1Cc1ccccc1` (centres undefined), for which the TGI in [1] came out at 27 µM; in test [2] it was 32.9 µM; in [3] it was 25.6 µM; in [4] it was 29.8 µM; in test [5], 28.1 µM; in test [10], 38.1 µM. For the same molecule, the TGI in [6] stood at 41.2 µM; in test [7], 53.5 µM; in test [8], 35.4 µM; in [9], 25.8 µM.

With `C=CC1(c2ccc(OC)cc2)OCCCO1`, the TGI in [2], in test [3], in test [4], in [5], in [10] and in [6] was over 100 µM throughout. Moreover, the TGI in test [7], in test [8] and in test [9] was over 100 µM in each case.

In the case of `COc1ccc(C[C@@H]2OC3(C=CC(=O)C=C3)O[C@H]2Cc2ccc(OC)cc2)cc1`, the TGI in [1] came out at 1.38 µM; in test [2], 4.22 µM; in test [3], 5.68 µM; in [4] it was 3.5 µM; in test [5], 25.1 µM; in [10], 0.645 µM. Besides, the TGI was determined as 5.01 µM in test [6], 1.84 µM in test [7], 1.21 µM in test [8] and 0.379 µM in test [9].

Turning to `O=C(Oc1cccc(Cl)c1)c1cc2cc(CCl)ccc2oc1=O`, the TGI is over 100 µM in test [1]; 33.5 µM in test [2]; 99.6 µM in test [3]; over 100 µM in [4]; over 100 µM in test [5]; over 100 µM in [10]. In addition, the TGI in [6], in test [7], in test [8] and in test [9] was over 100 µM throughout.

Take `Cc1ncc([N+](=O)[O-])n1CCNC(=O)CCCCCn1ccnc1[N+](=O)[O-]`: the TGI in test [1], in test [2], in [3], in [4], in [5] and in test [10] was over 100 µM each time. Also, the TGI in [6], in [7] and in test [9] was over 100 µM each time.

Consider `C#CCCCC(=O)N(C(=O)CS(=O)CC)c1ccccc1` (centres undefined), for which the TGI in test [1], in test [2], in [3], in [4], in [5] and in test [10] was over 100 µM throughout. The TGI in test [6], in test [7], in test [8] and in [9] was over 100 µM throughout.

For `CN(C)CCNc1nc2c(no[n+]2[O-])c2ccccc12`, the TGI in test [1] is 60.6 µM; in test [2], 37.1 µM; in test [3] it was over 100 µM; in test [4] it was 35.2 µM; in [5], over 100 µM; in [10], 32.8 µM. Besides, the TGI in [6] was 79 µM; in [7] it was 74.8 µM; in test [8], 63.1 µM; in [9], 49.1 µM.

In the case of `C=C1c2nc3ccccc3n2C=C(c2ccc(OC)cc2)N1c1ccc(OCCN2CCOCC2)cc1`, the TGI in test [1] was over 100 µM; in test [2], 27.6 µM; in test [3] it was over 100 µM; in test [4] it was over 100 µM; in test [5], over 49.9 µM; in [10], over 100 µM. Besides, the TGI in [6] was over 100 µM; in [7] it was over 55.2 µM; in [8], over 100 µM; in test [9], over 100 µM.

In the case of `CC1(C)CC2C(C1=O)C1(C)CCCC2(C)C1=O` (centres undefined), the TGI in test [1], in [2], in test [3], in [4], in test [5] and in test [10] was over 100 µM in each case. The TGI in [7], in test [8] and in test [9] was over 100 µM in each case.

Consider `CCN(CC)CCC(=O)c1ccc(Oc2ccc(F)cc2)cc1`, for which the TGI in test [1] was determined as 30.9 µM; in test [2] it was 34.9 µM; in test [3], 38.7 µM; in [4] it was 32.3 µM; in test [10], 57.6 µM; in test [6], 33.6 µM. Also, the TGI in [7] was over 100 µM; in [8], 31.7 µM.

Turning to `CCCCCCCCCCCCCCCCP(=O)([O-])OCC[N+](C)(C)C`, the TGI in test [1] stood at 25.4 µM; in test [2], 36.6 µM; in test [3], 35.3 µM; in [4] it was 34.2 µM; in [5], 18.8 µM; in test [10] it was 32.7 µM. Also, the TGI is over 57.4 µM in test [6], 29.4 µM in test [7], 3.51 µM in test [8] and 28.2 µM in test [9].
